# Measured values published in US6013672A, “Agonists of metabotropic glutamate receptors and uses thereof” (UAB Research Foundation, priority 1997, dated 2000).
# Read-outs that look alike come from different tables or passages of the source.
# Key:
# hippocampal astrocytes [1] = assay: Removal of an exogenous glutamate challenge by astrocyte cultures, [Glu]o over time; assay type: cell-based, rat
# Description: The bioluminescence method for detection was used for glutamate in solution as described by Fosse et al. (1986) with only minor modifications. The glutamate-specific reagent mixture contained potassium phosphate (pH 7.0) 25 mM, Triton X-100 40 μg/ml, dithiothreitol 100 μM, Myristyl aldehyde 40 μM (Aldrich; Milwaukee, Wis.), β-NAD 2 mM, ADP 250 μM, FMN 2.5 μM, luciferase 40 μg/ml, NAD(P)H:FMN oxidoreductase 400 mU/ml, glutamate dehydrogenase 0.5 mg/ml. All experiments were performed with a Monolight 2010 luminomitor (Analytical Luminescence Lab; Ann Arbor, Mich.).
# (§1) For experiments in which [Glu]o concentrations were assessed by the bioluminescence method, cells were maintained in glutamate-depleted medium in the presence or absence of the agonists/antagonist combination of interest. To assess chronic effects, glutamate analogues were applied for 24 hours unless indicated otherwise. After the incubation period, the stimulation media (containing drugs of interest) were aspirated and cells were washed twice with MEM and allowed to remain for 30 to 60 minutes in drug free MEM supplemented with 20 mM glucose prior to taking media samples for glutamate measurements. To assess acute drug effects, untreated cells were washed and the reagent of interest applied in glucose supplemented MEM. Cells were harvested in 0.3 N NaOH and neutralized with 0.3 N HCl. Aliquots were stored in -20° C. for protein and [Glu]i determination. Glutamate standards used for calibration were prepared in MEM (For [Glu]i in 0.15 N NaCl).
# To delineate the role of mGluR receptors on [Glu]o levels, hippocampal astrocytes were challenged with 50 μM glutamate and cells that were pretreated with trans-ACPD were compared to control cultures (FIG. 2A). Control astrocytes rapidly remove glutamate from the medium, and after ≈3 hours, [Glu]o stabilized at values to 1 μM. […] Mean values were 0.96±0.1 μM in control astrocytes, as compared to 0.18±0.03 μM in trans-ACPD treated astrocytes.
# Glutamate undoubtedly is the endogenous ligand for mGluRs. However, it was necessary to establish whether glutamate itself can induce the modulation in glutamate levels observed, and thus can mimic the modulatory effects observed with ACPD. These studies are difficult since, unlike ACPD, glutamate is also a substrate for the transporter, and therefore, is readily removed. Experiments were carried out in two ways, each yielding similar results. First, cells were preincubated for 24 hours with 100 μM glutamate, then washed and [Glu]o measured in MEM, or secondly, glutamate was directly applied in MEM and changes in [Glu]o were monitored.
# glial cells = assay: Glial glutamate uptake and extracellular glutamate with MPTP/MPP+ and t-ACPD; assay type: cell-based
# Description: The normally low glutamate levels in the brain are established and maintained in glial cells by non-vesicular uptake of glutamate through a Na^+ -dependent transporter (FIG. 14). Once taken up, glutamate can be converted to glutamine and recycled for neurotransmitter synthesis in neurons (FIG. 14). If glial cells in culture are exposed to high glutamate concentrations (e.g., 100 μM), they will remove it from the extracellular space and essentially "detoxify" the neuronal environment. […] Under those conditions, extracellular glutamate levels are elevated to 7 μM (FIG. 16), which is toxic to most surrounding neurons.
# Impaired glial glutamate transport may contribute to the loss of dopaminergic neurons in Parkinson's disease. Thus, stimulation of this pathway would be neuroprotective. A drug and its receptor on glial cells was identified that allows enhanced glutamate detoxification. Specifically, trans-ACPD (trans-1-amino-1,3-cyclopentane dicarboxylic acid) (t-ACPD), a group II metabotropic glutamate receptor agonist, enhanced glial glutamate uptake (FIG. 17). It's actions were 2-fold; (i) it enhanced glutamate uptake by up to 80%, and (ii) it decreased non-specific release of glutamate, effectively trapping glutamate inside glial cells. In fact, the release of glutamate decreased to such a large extent that it almost made the transporter rectify, e.g. allowing only influx and preventing outflow of glutamate (FIG. 18). […] Using antibodies and further pharmacological studies, the receptor that is responsible for these effects has been identified as mGluR2/3.
# In Parkinson's disease, it is believed that neurons may die of excitotoxic exposure to glutamate. The present invention determined that MPTP directly effects glutamate uptake into astrocytes (FIG. 21, top left). […] This increased release may be sufficient to explain some of the subsequent neurodegeneration.
# hippocampal astrocytes [2] = assay: 3H-D-aspartate (glutamate/aspartate) uptake in astrocytes; assay type: cell-based, rat; settings: Rattus norvegicus, Astrocyte; 0.5 mM, 24 hour exposure; average of 25 experiments; read-out: glutamate/aspartate uptake enhanced by
# Description: Uptake procedures were essentially identical to those previously described (Kimelberg et al. 1989; Ye et al., 1996). Briefly, 5-10 minutes before assessing uptake, astrocytes were washed and kept in a solution containing (in mM): NaCl 122, KCl 3, MgSO4 0.4, KH2 PO4 1.2, NaHCO3 25, D-glucose 10, and CaCl2 1.3, at 37° C., bubbled with 5%/95% CO2 /O2. Then the cells were switched to the above solution supplemented with 0.1 mM D-aspartate and 0.4 μCi/ml ^3 H-D-aspartate. Glutamate/aspartate uptake was determined over a 10 or 30 minutes period and was terminated by three quick washes, twice with ice cold 0.29 M sucrose solution with 10 mM Tris Nitrate, 0.5 mM Ca(NO3)2, (pH 7.40 by NaOH) and then with ice cold PBS. Cells were then harvested after a 30 minute incubation in 0.3 N NaOH solution (37° C.) and ^3 H activity was determined in a liquid scintillation counter (Beckman). Total uptake was normalized to protein content to eliminate variability due to cell number. Protein levels were determined using the bicinchoninic acid (BCA) assay (Pierce; Rockford, Ill.).
# [3] = system: rat hippocampal brain slices; assay: THA-induced glutamate release in acute hippocampal brain sections; assay type: cell-based; settings: 400 min pretreatment
# Excerpt: This was accomplished using THA, a heteroexchange drug that is also a substrate for the glutamate transporter. For each molecule of THA transported into the cell, one molecule of glutamate is released. Therefore, THA allows the induction of glutamate release.
# hippocampal astrocytes [4] = assay: Extracellular glutamate [Glu]o released by astrocyte cultures (bioluminescence); assay type: cell-based, rat; settings: for activity at 100 µM: read-out: % of control [Glu]0
# hippocampal astrocytes [5] = assay: Intracellular glutamate content [Glu]i of astrocytes; assay type: cell-based, rat; settings: Rattus norvegicus, Astrocyte, 24 h; highest dose used (1 mM), chronic treatment
# Description: as §1, with “To assess chronic effects, glutamate analogues were applied for 24 hours unless indicated otherwise.” left out
# GLT-1 = settings: cited from earlier work
# dopaminergic neurons = assay: Cell death of dopaminergic neurons induced by glutamate or MPTP; assay type: cell-based, rat
# Description: Cell death of dopaminergic neurons induced by glutamate, and the role of glial glutamate transport in protection of cell death at the cellular level were studied as it relates to Parkinson's disease. […] Thus, glutamate concentrations as low as 3-5 μM induced rapid cell death (FIGS. 11 and 12). Glutamate concentrations were also measured in the normal brain. They are typically around 1 μM, below the toxic level for dopaminergic neurons. […] This late onset of glutamate toxicity is compatible with the late onset of Parkinson's disease.
# [6] = 500 μM for 24 hour before 50 μM glutamate challenge
compound,measurement,setting,value
"N[C@@]1(C(=O)O)CC[C@@H](C(=O)O)C1 (relative stereo) [trans-ACPD, trans-1-aminocyclopentane-1,3-dicarboxylic acid]",steady-state [Glu]o after glutamate challenge,hippocampal astrocytes [1]; [6],0.18 ± 0.03 µM
same,steady-state [Glu]o lower than in control cultures,hippocampal astrocytes [1]; [6],5 fold
same,enhancement of glutamate uptake,glial cells,up to 80%
same,reduction of extracellular glutamate levels versus control,glial cells; neuron-glial cocultures (FIG. 19),up to 100%
same,activation at 500 µM,hippocampal astrocytes [2],31 ± 2.7%
same,reduction of THA-induced glutamate release,[3],≈ 40%
same,activity at 100 µM,"hippocampal astrocytes [4]; Rattus norvegicus, Astrocyte, 432 h, cells P9, 18 days in vitro, 250 μM agonist",46.3 ± 4.3%
same,activity at 100 µM,"hippocampal astrocytes [4]; Rattus norvegicus, Astrocyte, 432 h, cells P23, 18 days in vitro, 200 μM agonist",12.4 ± 1.2%
same,activity at 100 µM,"hippocampal astrocytes [4]; Rattus norvegicus, Astrocyte, 456 h, cells P21, 19 days in vitro, 100 μM agonist",23.1 ± 1.4%
same,activity at 100 µM,"hippocampal astrocytes [4]; Rattus norvegicus, Astrocyte, 624 h, cells P15, 26 days in vitro, 100 μM agonist",20 ± 6.1%
same,activity at 100 µM,"hippocampal astrocytes [4]; Rattus norvegicus, Astrocyte, 672 h, cells P2, 28 days in vitro, 500 μM agonist",78.2 ± 10.1%
same,activity at 100 µM,"hippocampal astrocytes [4]; Rattus norvegicus, Astrocyte, cells P0, 60 days in vitro, 100 μM agonist",60.6 ± 6.3%
same,activity at 100 µM,"hippocampal astrocytes [4]; Rattus norvegicus, Astrocyte, cells P2, 25 days in vitro, 500 μM agonist",59.6 ± 10.1%
same,activity at 100 µM,"hippocampal astrocytes [4]; Rattus norvegicus, Astrocyte, cells P2, 34 days in vitro, 100 μM agonist",51.3 ± 5.7%
same,activity at 100 µM,"hippocampal astrocytes [4]; Rattus norvegicus, Astrocyte, cells P40, 31 days in vitro, 100 μM agonist",19.5 ± 2.7%
"N[C@@]1(C(=O)O)CC[C@@H](C(=O)O)C1 [1S3R-ACPD, (1S,3R)-1-aminocyclopentane-1,3-dicarboxylic acid]",activation at 500 µM,hippocampal astrocytes [2],31 ± 2.7%
same,activity at 1000 µM,hippocampal astrocytes [5],85.2 ± 5.1%
same,more effective than 1R3S-ACPD in reducing glutamate release,hippocampal astrocytes [4],≈ 100 fold
same,"time to steady-state [Glu]o, acute application",hippocampal astrocytes [4]; 50 μM in glutamate-free MEM,≈ 2 hours
same,"steady-state [Glu]o, acute application","hippocampal astrocytes [4]; 50 μM in glutamate-free, glucose-supplemented MEM",0.3 to 0.4 µM
same,THA-induced glutamate release lower in treated cells,"hippocampal astrocytes [4]; 100 μM for 24 hours pretreatment, any THA concentration",3-5 fold
same,swelling induced glutamate release,"hippocampal astrocytes [4]; 100 μM, 24 h pretreatment, hypotonic 153 mOsm",inhibited swelling induced glutamate release to some extent
same,preincubation time for maximal effects,hippocampal astrocytes [4]; 200 μM,≈ 14 hours
same,ET50 of attenuation of [Glu]o versus preincubation time,"hippocampal astrocytes [4]; 200 μM, preincubation 0.5-36 hours",≈ 1 hour
same,order of potency in mimicking ACPD effect on glutamate release,hippocampal astrocytes [4]; FIG. 7B,S-4CPG>1S3R-ACPD>L-CCG-I>1S3S-ACPD=QA
same,activity at 200 µM,"hippocampal astrocytes [4]; Rattus norvegicus, Astrocyte, 14 h, 200 μM, ≈14 hours preincubation, read-out: [Glu]o levels at maximal effect",< 30%
same,activity at 100 µM,"hippocampal astrocytes [4]; Rattus norvegicus, Astrocyte, 408 h, cells P22, 17 days in vitro, 100 μM agonist",17.3 ± 1.2%
same,activity at 100 µM,"hippocampal astrocytes [4]; Rattus norvegicus, Astrocyte, 408 h, cells P22, 17 days in vitro, 200 μM agonist",14.8 ± 4.3%
same,activity at 100 µM,"hippocampal astrocytes [4]; Rattus norvegicus, Astrocyte, 480 h, cells P16, 20 days in vitro, 10 μM agonist",32.5 ± 4.7%
same,activity at 100 µM,"hippocampal astrocytes [4]; Rattus norvegicus, Astrocyte, 528 h, cells P2, 22 days in vitro, 100 μM agonist",73.4 ± 2.9%
same,activity at 100 µM,"hippocampal astrocytes [4]; Rattus norvegicus, Astrocyte, 528 h, cells P13, 22 days in vitro, 100 μM agonist",34.1 ± 5.6%
same,activity at 100 µM,"hippocampal astrocytes [4]; Rattus norvegicus, Astrocyte, 552 h, cells P9, 23 days in vitro, 100 μM agonist",45.8 ± 11.9%
same,activity at 100 µM,"hippocampal astrocytes [4]; Rattus norvegicus, Astrocyte, cells P2, 30 days in vitro, 100 μM agonist",66.9 ± 9.9%
same,activity at 100 µM,"hippocampal astrocytes [4]; Rattus norvegicus, Astrocyte, cells P9, 36 days in vitro, 100 μM agonist",66.5 ± 6.29%
same,activity at 100 µM,"hippocampal astrocytes [4]; Rattus norvegicus, Astrocyte, cells P10, 32 days in vitro, 250 μM agonist",24.1 ± 7.8%
same,activity at 100 µM,"hippocampal astrocytes [4]; Rattus norvegicus, Astrocyte, cells P22, 40 days in vitro, 250 μM agonist",29 ± 5.4%
same,EC50,"hippocampal astrocytes [4]; Rattus norvegicus, Astrocyte, 24 hours treatment, dose-effect curve, read-out: EC50, reduction of glutamate release",2 to 5 µM
same,effect on [Glu]o / glutamate release,"hippocampal astrocytes [4]; cells treated for 24 hours, then MEM",reduce [Glu]o in a dose-dependent manner
N[C@@H](CCC(=O)O)C(=O)O [glutamate],duration of glutamate undershoot,hippocampal astrocytes [1]; 100 μM glutamate,approximately 10 hours
same,THA induced glutamate release during undershoot,"hippocampal astrocytes [1]; 100 μM glutamate several hours before, 200 μM THA",induced less glutamate release
same,[Glu]o undershoot level after glutamate challenge,"hippocampal astrocytes [1]; 100 μM glutamate, P22 astrocyte culture",≈ 0.4 μM
same,Km,GLT-1,2 µM
same,IC50,dopaminergic neurons,~5 µM
same,neuronal cell death,dopaminergic neurons; 0.03 mM,neurotoxic to most neurons
same,susceptibility of neurons to glutamate by age,dopaminergic neurons; adult rats (>30 days),highest glutamate sensitivity
same,glutamate concentrations inducing rapid cell death,dopaminergic neurons; rat,3 to 5 µM
same,susceptibility of neurons to glutamate by age,dopaminergic neurons; young rats,relatively insensitive
